These results are taken from ChEMBL document CHEMBL3797065, “Kaurane and abietane diterpenoids from the roots of Tripterygium wilfordii and their cytotoxic evaluation” (Bioorg Med Chem Lett, 2016).

The test system of test [1] is Bcap37. Put plainly: Cytotoxicity against human Bcap37 cells after 48 hrs by MTT assay. In kind it is functional, cell-based. The following applies: Bcap37, 48 h.
Test [2] concerns U-251. Put plainly: Cytotoxicity against human U251 cells after 48 hrs by MTT assay. It counts as functional, cell-based. The following applies: U-251, 48 h. A general note: Tetrazolium assays rely on reduction of a dye to a coloured formazan, in cell work by metabolically active cells.
Test [3] concerns HepG2. Nature of the test: Cytotoxicity against human HepG2 cells after 48 hrs by MTT assay. The settings on record: HepG2, 48 h. In kind it is functional, cell-based.
The subject of test [4] is MCF7. Nature of the test: Cytotoxicity against human MCF7 cells after 48 hrs by MTT assay. In kind it is functional, cell-based. The settings on record: MCF7, 48 h.
A short description of test [5]: Cytotoxicity against human Hep3B cells after 48 hrs by MTT assay. In kind it is functional, cell-based, Hep 3B2.
Test [6] deals with A549. Nature of the test: Cytotoxicity against human A549 cells after 48 hrs by MTT assay. In kind it is functional, cell-based. The settings on record: A549, 48 h.

As to `CC1=C(C(=O)O)CC[C@]2(C)C3=C(CC[C@@H]12)C(=O)C(C(C)C)=CC3=O`, the IC50 in test [1], in test [2], in test [3], in test [4], in test [5] and in test [6] was more than 100 µM in each case.
Take `CO[C@@H]1OC[C@@]2(C)CCC[C@]13[C@@H]1CC[C@H]4C[C@@]1(CC[C@@H]23)C[C@@]4(C)O`: the IC50 in test [1], in test [2], in test [3], in test [4], in test [5] and in test [6] was more than 100 µM each time.
For the molecule `COc1c(C(C)C)cc(O)c2c1CC[C@H]1C(C)(C)C(=O)CC[C@]21C`, the IC50 in test [1] is more than 100 µM; in test [2], 29.3 µM; in test [3], 47.8 µM; in test [4] it was more than 100 µM; in test [5] it was 39.8 µM; in test [6] it was more than 100 µM.
On to `COc1c(C(C)C)cc(O)c2c1CCC1=C(C)C(=O)CC[C@@]12C`, for which the IC50 in test [1] came to 7.93 µM; in test [2], 8.62 µM; in test [3], 5.1 µM; in test [4], 5.73 µM; in test [5], 18.2 µM; in test [6], 17.4 µM.
Turning to `CC(C)c1ccc2c(c1)CC[C@H]1[C@@](C)(CO)C(=O)CC[C@]21C`, the IC50 in test [1] was more than 100 µM; in test [2], more than 100 µM; in test [3], 32.7 µM; in test [4], more than 100 µM; in test [5] it was more than 100 µM; in test [6] it was 39 µM.
Consider `C[C@@]1(O)C[C@@]23CC[C@H]4[C@@]5(CCC[C@]4(C)C(=O)OC5)[C@]2(O)CC[C@H]1C3`, for which the IC50 in test [1], in test [2], in test [3], in test [4], in test [5] and in test [6] was more than 100 µM in each case.
As for `COc1cc2c(c(O)c1C(C)C)CC[C@H]1C(C)=C(C(=O)O)CC[C@]21C`, the IC50 was 37.6 µM in test [1]; more than 100 µM in test [2]; 42.5 µM in test [3]; more than 100 µM in test [4]; 29.7 µM in test [5]; more than 100 µM in test [6].
With `CC(C)c1ccc2c(c1O)CC[C@H]1[C@@](C)(CO)[C@@H](O)CC[C@]21C`, the IC50 is more than 100 µM in test [1]; more than 100 µM in test [2]; 36.3 µM in test [3]; 23.8 µM in test [4]; 48.7 µM in test [5]; 30.1 µM in test [6].
As to `CC(C)C1=CC(=O)C2=C(CC[C@H]3[C@@](C)(CO)[C@@H](O)CC[C@]23C)C1=O`, the IC50 in test [1] is more than 100 µM; in test [2] it was 43.6 µM; in test [3], more than 100 µM; in test [4], 11.4 µM; in test [5], 17.4 µM; in test [6], 11.5 µM.
Take `C[C@@]12CCC[C@]3(C(=O)OC1)[C@@H]2CC[C@@]12C[C@H](CC[C@H]13)[C@](C)(O)C2`: the concentration for half-maximal inhibition (IC50) in test [1] is more than 100 µM; in test [2], more than 100 µM; in test [3], 97.1 µM; in test [4], more than 100 µM; in test [5], more than 100 µM; in test [6], more than 100 µM.
On to `CC(C)C1=C[C@@]2(O)OO[C@@H]3CC(=O)[C@](C)(CO)[C@@H]4CCC(=C2[C@]43C)C1=O`, for which the concentration for half-maximal inhibition (IC50) was more than 100 µM in test [1]; 24.9 µM in test [2]; more than 100 µM in test [3]; more than 100 µM in test [4]; 17.7 µM in test [5]; 10.7 µM in test [6].
`CC(C)c1ccc2c(c1O)CC[C@H]1C(C)(C)[C@@H](O)CC[C@]21C`: the IC50 in test [1] is more than 100 µM; in test [2], more than 100 µM; in test [3], 46.3 µM; in test [4], more than 100 µM; in test [5], more than 100 µM; in test [6], more than 100 µM.
On to `COc1c(C(C)C)cc(O)c2c1CC[C@H]1C(C)=C(C(=O)O)CC[C@]21C`, for which the IC50 in test [1], in test [2], in test [3], in test [4], in test [5] and in test [6] was more than 100 µM throughout.
`C[C@]12C3=C4CC=C[C@@]3(O)OO[C@@H]1CC1=C(COC1=O)[C@@H]2CC4`: the half-maximal inhibitory concentration (IC50) in test [1] turned out to be 8.11 µM; in test [2], 20.2 µM; in test [3] it was 10.9 µM; in test [4], 23.3 µM; in test [5] it was 18 µM; in test [6], 11.3 µM.
Turning to `COc1c(C(C)C)cc(O)c2c1CC[C@H]1[C@@](C)(CO)C(=O)CC[C@]21C`, the IC50 in test [1] was more than 100 µM; in test [2] it was more than 100 µM; in test [3], 21.9 µM; in test [4], 23.2 µM; in test [5] it was 28.7 µM; in test [6], 21.6 µM.
As for `CC(C)C1=CC(=O)C2=C(CC[C@H]3[C@@](C)(CO)C(=O)CC[C@]23C)C1=O`, the IC50 is 13.3 µM in test [1]; more than 100 µM in test [2]; 26.3 µM in test [3]; 16.7 µM in test [4]; 26 µM in test [5]; 19.9 µM in test [6].
As for `C=C1C(OC(C)=O)[C@]23[C@H](O)[C@H]1CC[C@H]2[C@]12CCCC(C)(C)[C@H]1[C@H](OC(C)=O)[C@@]3(O)OC2` (stereo not given in full), the IC50 in test [1] is more than 100 µM; in test [2], more than 100 µM; in test [3], 38.4 µM; in test [4] it was 37.4 µM; in test [5], 48.3 µM; in test [6], 21.9 µM.
As to `CO[C@@H]1OC[C@@]23CCC[C@@]1(C)[C@@H]2CC[C@@]12C[C@@H](CC[C@H]13)[C@](C)(O)C2` (relative stereo), the IC50 in test [1] was 11.6 µM; in test [2], 13.5 µM; in test [3], 28.5 µM; in test [4], more than 100 µM; in test [5], 48.9 µM; in test [6], 39.3 µM.
Consider `O=c1[nH]cc(F)c(=O)[nH]1` [FLUOROURACIL], for which the IC50 in test [1] came out at 15.5 µM; in test [2], 24.7 µM; in test [5], 17.5 µM; in test [6], 21.6 µM.
As for `C[C@@]1(O)C[C@@]23CC[C@H]4[C@@]5(CCC[C@]4(C)C(=O)OC5)[C@@H]2CC[C@H]1C3` [TRIPTERIFORDIN], the IC50 in test [1], in test [2], in test [3], in test [4], in test [5] and in test [6] was more than 100 µM throughout.
As for `CC(C)c1ccc2c(c1)C(=O)C[C@H]1[C@@](C)(CO)C(=O)CC[C@]21C` [TRIPTOBENZENE N], the IC50 was more than 100 µM in test [1]; more than 100 µM in test [2]; 43.7 µM in test [3]; more than 100 µM in test [4]; more than 100 µM in test [5]; 32.8 µM in test [6].
With `CC(C)c1ccc2c(c1O)CC[C@H]1C3=C(CC[C@]21C)C(=O)OC3` [TRIPTOPHENOLIDE], the half-maximal inhibitory concentration (IC50) in test [1] is 22.4 µM; in test [2], more than 100 µM; in test [3] it was 17 µM; in test [4] it was more than 100 µM; in test [5] it was 22.2 µM; in test [6], 42.9 µM.

For orientation: IC50 means the concentration that gives 50% inhibition.
